Earlier results on one compound are cited in patent US20240139133A1, “TOPICAL NAPROXEN FORMULATIONS AND THEIR USE” (SMARTECH TOPICAL, INC., priority 2021, published 2024).

The conditions of the data set: printed as a negative log P.

In general, log P refers to a log measure of how a compound divides between an organic and an aqueous phase. For the compound `CCOCCOCCO` [Transcutol, 2-(2-Ethoxyethoxy)ethanol], the log P is about -0.5.
